Test results published in patent publication EP4162932A1, “ANTIVIRAL HOP CONSTITUENTS” (HHV Hallertauer Hopfenveredelungsgesellschaft mbH, priority 2021, dated 2023).

How the values were obtained:
icSARS-CoV-2-mNG = assay: microbe, parasite or virus in culture; format: cell-based, SARS-CoV-2; conditions: Severe acute respiratory syndrome coronavirus 2, Caco-2, 48 h; read-out: half maximal inhibitory concentration (IC50) on virus replication
SARS-CoV-2 PLpro = SARS-CoV-2 PLpro (Severe acute respiratory syndrome coronavirus 2, UniProt P0DTD1); assay: PLpro kinetic inhibition assay, cleavage of AMC peptide mimicking the C-terminus of human ISG15; format: biochemical
in vitro = conditions: human, Caco-2

SMILES	IC50 (icSARS-CoV-2-mNG)	IC50 (SARS-CoV-2 PLpro)	CC50 (in vitro)
CC(C)=CCc1c(O)cc2c(c1O)C(=O)C[C@@H](c1ccc(O)cc1)O2 [6-PN, 6-prenylnaringenin]	7.26 µM	131 ± 10 µM	22.6 µM
CC(C)=CCc1c(O)cc(O)c2c1O[C@H](c1ccc(O)cc1)CC2=O [8-PN, 8-prenylnaringenin]	23 µM	119 ± 13 µM	54.9 µM
COc1cc(O)c(CC=C(C)C)c2c1C(=O)CC(c1ccc(O)cc1)O2 (centres unmarked) [IX, isoxanthohumol]	20.1 µM	59 ± 15 µM	19.5 µM
COc1cc(O)c(CC=C(C)C)c(O)c1C(=O)/C=C/c1ccc(O)cc1 [XN, xanthohumol]	3.28 µM		12.3 µM
